Reference: ChEMBL document CHEMBL6087437 (J Med Chem, 2025)
Active and inactive are the calls of the source. No cut-off for these calls is given here.

Columns and labels:
Reston ebolavirus = assay: Antiviral activity against pseudotyped Reston ebolavirus expressing glycoprotein infected in human A549 cells assessed as inhibition of viral entry incubated for 48 hrs by Neolite reporter gene assay; assay type: functional, organism-based; conditions: A549, 48 h
HeLa = assay: Cytotoxicity against human HeLa cells by Celltiter-Glo luminescent cell viability assay; assay type: toxicity, cell-based
Zaire ebolavirus = assay: Antiviral activity against pseudotyped Zaire ebolavirus expressing glycoprotein infected in human A549 cells assessed as inhibition of viral entry incubated for 48 hrs by Neolite reporter gene assay; assay type: functional, organism-based; conditions: A549, 48 h
Bundibugyo virus = assay: Antiviral activity against pseudotyped Bundibugyo ebolavirus expressing glycoprotein infected in human A549 cells assessed as inhibition of viral entry incubated for 48 hrs by Neolite reporter gene assay; assay type: functional, organism-based; conditions: A549, 48 h
Ebolavirus [1] = assay: Antiviral activity against wildtype Ebola virus infected in human HeLa cells incubated for 40 hrs by Hoechst 33342 staining based Cytation-1 automated microscopic analysis; assay type: functional, organism-based; conditions: Orthoebolavirus
Ebolavirus [2] = assay: Antiviral activity against pseudotyped Ebola virus expressing glycoprotein infected in human A549 cells assessed as inhibition of viral entry incubated for 48 hrs by Neolite reporter gene assay; assay type: functional, organism-based; conditions: Orthoebolavirus, A549, 48 h
Tai Forest ebolavirus = assay: Antiviral activity against pseudotyped Tai Forest ebolavirus expressing glycoprotein infected in human A549 cells assessed as inhibition of viral entry incubated for 48 hrs by Neolite reporter gene assay; assay type: functional, organism-based; conditions: A549, 48 h
[3] = Selectivity index, ratio of CC50 for human A549 cells to EC50 for pseudotyped Ebola virus expressing glycoprotein infected in human A549 cells; assay type: toxicity, cell-based; conditions: read-out: Ratio CC50/EC50
Marburgvirus = assay: Antiviral activity against pseudotyped Marburg virus expressing glycoprotein infected in human A549 cells assessed as inhibition of viral entry incubated for 48 hrs by Neolite reporter gene assay; assay type: functional, organism-based; conditions: Orthomarburgvirus, A549, 48 h
[4] = Selectivity index, ratio of CC50 for human HeLa cells to EC50 for antiviral activity against wildtype Ebolavirus infected in human HeLa cells; assay type: toxicity, cell-based; conditions: read-out: Ratio CC50/EC50
Sudan ebolavirus = assay: Antiviral activity against pseudotyped Sudan ebolavirus expressing glycoprotein infected in human A549 cells assessed as inhibition of viral entry incubated for 48 hrs by Neolite reporter gene assay; assay type: functional, organism-based; conditions: A549, 48 h
Influenza A virus = assay: Antiviral activity against pseudotyped Influenza A virus A/Goose/Qinghai/59/05(H5N1) infected in human A549 cells assessed as inhibition of viral entry incubated for 48 hrs by Neolite reporter gene assay; assay type: functional, organism-based
[5] = tested on: Vesicular stomatitis virus; assay: Antiviral activity against pseudotyped vesicular stomatitis virus expressing glycoprotein infected in human A549 cells assessed as inhibition of viral entry incubated for 48 hrs by Neolite reporter gene assay; assay type: functional, organism-based
Ebolavirus [6] = assay: Binding affinity to Ebolavirus glycoprotein by SPR analysis

SMILES | EC50 (Ebolavirus [2]) [µM] | selectivity ratio [3] | EC50 (Marburgvirus) [µM] | also measured
O=C(Nc1ccc(N2CCC3(CCC3)CC2)c(C(F)(F)F)c1)c1ccc(C(=O)N2C[C@H]3C[C@@H]2CO3)nc1 | 0.23 | 201 | 3.89 | EC50 (Reston ebolavirus): 0.26 µM; CC50 (HeLa): 43.4 µM; EC50 (Zaire ebolavirus): 0.23 µM; EC50 (Bundibugyo virus): 1.19 µM; EC50 (Ebolavirus [1]): 0.89 µM; EC50 (Tai Forest ebolavirus): 0.13 µM; selectivity ratio [4]: 49; EC50 (Sudan ebolavirus): 1.61 µM; inhibition (Influenza A virus): Weak_effect; inhibition [5]: Weak_effect
CC1CCN(c2ccc(NC(=O)c3ccc(CN4CCOCC4)cc3)cc2Cl)CC1 | 4.32 | 6 | 18.5 | –
CC1(C)CCCN(c2ccc(NC(=O)c3ccc(CN4CCOCC4)cc3)cc2C(F)(F)F)C1 | 0.37 | 107 | 6.58 | –
O=C(Nc1ccc(C(F)(F)F)c(Cl)c1)c1ccc(CN2CCOCC2)cc1 | 22.1 | 1 | 3.91 | –
CC1CCN(c2ccc(NC(=O)c3ccc(CN4C[C@@H]5C[C@H]4CO5)cn3)cc2C(F)(F)F)CC1 | 0.29 | 345 | 8.23 | –
CC1CCN(c2ccc(NC(=O)c3ccc(CN4C[C@@H]5C[C@H]4CO5)cc3)cc2C(F)(F)F)CC1 | 0.23 | 86 | 1.34 | –
CC1CCN(c2ccc(N(CC3CC3)C(=O)c3ccc(CN4CCOCC4)cc3)cc2C(F)(F)F)CC1 | 1.82 | 22 | 4.61 | –
O=C(Nc1ccc(C23CC4CC(CC(O)(C4)C2)C3)cc1)c1ccc(CN2CCOCC2)cc1 | 64.6 | – | 25 | –
O=C(N[C@]12CC3CC(C[C@@H](C3)C1)C2)c1ccc(CN2CCOCC2)cc1 | 6.27 | 16 | 53.8 | –
O=C(Nc1ccc(CN2CCOCC2)cc1)Nc1ccc(C23CC4CC(CC(C4)C2)C3)cc1 | 0.37 | 32 | 2.58 | CC50 (HeLa): 16.6 µM; EC50 (Ebolavirus [1]): 0.7 µM; selectivity ratio [4]: 24
O=C(Nc1ccc(N2CCC3(CCC3)CC2)c(C(F)(F)F)c1)c1ccc(CN2CCOCC2)cc1 | 0.09 | 209 | 1.11 | –
CC1CCN(c2ccc(NC(=O)c3ccc(CN4C[C@@H]5C[C@H]4CO5)nc3)cc2C(F)(F)F)CC1 | 0.31 | 149 | 3.43 | Activity (Ebolavirus [6]): Active
CC(C)C1CCN(c2ccc(NC(=O)c3ccc(CN4CCOCC4)cc3)cc2C(F)(F)F)CC1 | 0.56 | 28 | 5.64 | –
CC1CCN(c2ccc(NC(=O)c3ccc(CN4CCOCC4)cc3)cn2)CC1 | 12.3 | 8 | 24.4 | –
O=C(Nc1ccc(C23CC4CC(CC(C4)C2)C3)cc1)c1ccc(CN2CCOCC2)cc1 | 0.15 | 495 | 8.07 | –
CN1CCN(c2ccc(NC(=O)c3ccc(CN4CCOCC4)cc3)cc2C(F)(F)F)CC1 | 0.97 | 37 | 3.93 | –
CC1(C)CCN(c2ccc(NC(=O)c3ccc(CN4CCOCC4)cc3)cc2C(F)(F)F)C1 | 0.19 | 321 | 1.45 | –
CC1CCN(c2ccc(NC(=O)c3ccc(CN4CCOCC4)cc3)cc2F)CC1 | > 100 | > 1 | > 100 | –
O=C(Nc1ccc(Cl)c(C(F)(F)F)c1)c1ccc(CN2CCOCC2)cc1 | 8.09 | 6 | 5.6 | –

SMILES | EC50 (Ebolavirus [2]) [µM] | selectivity ratio [3] | EC50 (Marburgvirus) [µM] | also measured
O=C(Nc1ccc(N2CCC2)c(C(F)(F)F)c1)c1ccc(CN2CCOCC2)cc1 | 14.9 | 6 | 42.4 | –
CC1CCN(c2ccc(C(=O)Nc3ccc(CN4CCOCC4)cc3)cc2C(F)(F)F)CC1 | 1.03 | 23 | 2.9 | –
CC1CCCN(c2ccc(NC(=O)c3ccc(CN4CCOCC4)cc3)cc2C(F)(F)F)C1 (stereo not given) | 0.3 | 142 | 3.06 | –
CC(C)(C)C1CCN(c2ccc(NC(=O)c3ccc(CN4CCOCC4)cc3)cc2C(F)(F)F)CC1 | 1.45 | 13 | 6.15 | –
O=C(Nc1csc(N2CCOCC2)n1)c1ccc(CN2CCOCC2)cc1 | > 100 | > 1 | > 100 | –
CC(C)(C)c1ccc(NC(=O)c2ccc(CN3CCOCC3)cc2)c(C(C)(C)C)c1 | 3.32 | 30 | 17.1 | –
CC1CCN(c2ccc(NC(=O)Nc3ccc(CN4CCOCC4)cc3)cc2C(F)(F)F)CC1 | 2.18 | 7 | 3.49 | –
CC1CCN(c2ccc(N(C)C(=O)c3ccc(CN4CCOCC4)cc3)cc2C(F)(F)F)CC1 | 1.55 | 33 | 7.56 | –
O=C(Nc1ccc(SC(F)(F)F)c(Cl)c1)c1ccc(CN2CCOCC2)cc1 | 4.95 | 5 | 8.43 | –
O=C(Nc1ccc(N2CCCC2)c(C(F)(F)F)c1)c1ccc(CN2CCOCC2)cc1 | 3.3 | 18 | 14.9 | –
O=C(Nc1ccc(C23CC4CC(CC(C4)C2)C3)cc1)c1ccc(CN2C[C@@H]3C[C@H]2CO3)nc1 | 0.23 | 258 | 2.8 | Activity (Ebolavirus [6]): Active
O=C(c1ccc(CN2CCOCC2)cc1)N(c1ccccc1)c1ccccc1 | 6.72 | > 15 | 71.1 | –
CC1CC(C)CN(c2ccc(NC(=O)c3ccc(CN4CCOCC4)cc3)cc2C(F)(F)F)C1 (stereo not given) | 1.07 | 52 | 5.34 | –
O=C(Nc1ccc(N2CC3(CCC3)C2)c(C(F)(F)F)c1)c1ccc(CN2CCOCC2)cc1 | 0.86 | 116 | 3.65 | –
O=C(Nc1ccc(C23CC4CC(CC(C4)C2)C3)cc1)c1ccc(CN2C[C@@H]3C[C@H]2CO3)cc1 | 0.2 | 77 | 1.33 | CC50 (HeLa): 10.3 µM; Activity (Ebolavirus [6]): Active; EC50 (Ebolavirus [1]): 0.61 µM; selectivity ratio [4]: 17
O=C(Nc1ccc(CN2CCOCC2)cc1)c1ccc(Cl)c(C(F)(F)F)c1 | 7.76 | 9 | 5.66 | –
O=C(Nc1ccc(N2CCC3(CCC3)CC2)c(C(F)(F)F)c1)c1ccc(CN2C[C@H]3C[C@@H]2CO3)nc1 | 0.21 | – | 0.88 | EC50 (Reston ebolavirus): 0.4 µM; CC50 (HeLa): 13.4 µM; EC50 (Zaire ebolavirus): 0.21 µM; EC50 (Bundibugyo virus): 0.96 µM; EC50 (Ebolavirus [1]): 0.52 µM; EC50 (Tai Forest ebolavirus): 0.17 µM; EC50 (Sudan ebolavirus): 0.42 µM; inhibition (Influenza A virus): Weak_effect; inhibition [5]: Weak_effect
CC1CCN(c2ccc(NC(=O)c3ccc(CN4CCOCC4)nc3)cc2C(F)(F)F)CC1 | 0.4 | 138 | 1.12 | –
O=C(Nc1ccc(N2CCOCC2)c(C(F)(F)F)c1)c1ccc(CN2CCOCC2)cc1 | 0.49 | 69 | 6.97 | –
